What was measured:
Rat [1] = assay: concentration in plasma after dosing; conditions: 1 h; dosed: Gemfibrozil; 50 mg/kg; oral; Male; Sprague-Dawley
Rat [2] = assay: concentration in plasma after dosing; conditions: 6 h; dosed: Gemfibrozil; 50 mg/kg; oral; Male; Sprague-Dawley
Rat [3] = assay: concentration in plasma after dosing; conditions: 6 h; dosed: Gemfibrozil; 100 mg/kg; oral; Male; Sprague-Dawley
Rat [4] = assay: concentration in plasma after dosing; conditions: 18 h; dosed: Gemfibrozil; 4.29 mg/kg; oral; Male; Sprague-Dawley
Rat [5] = assay: concentration in plasma after dosing; conditions: 1 h; dosed: Gemfibrozil; 100 mg/kg; oral; Male; Sprague-Dawley
Rat [6] = assay: concentration in plasma after dosing; conditions: 0.25 h; dosed: Gemfibrozil; 4.29 mg/kg; oral; Male; Sprague-Dawley
Rat [7] = assay: concentration in brain after dosing; conditions: 0.5 h; dosed: 2-Methyltetrahydrofuran; 40 mg/kg; iv; Male; Harlan Sprague Dawley
Rat [8] = assay: concentration in plasma after dosing; conditions: 1.5 h; dosed: 2-Methyltetrahydrofuran; 40 mg/kg; iv; Male; Harlan Sprague Dawley
Rat [9] = assay: concentration in plasma after dosing; conditions: 0.2 h; dosed: 2-Methyltetrahydrofuran; 40 mg/kg; iv; Male; Harlan Sprague Dawley
Rat [10] = assay: concentration in plasma after dosing; conditions: 7 min; dosed: 2-Methyltetrahydrofuran; 40 mg/kg; iv; Male; Harlan Sprague Dawley
Rat [11] = assay: concentration in brain after dosing; conditions: 0.75 h; dosed: 2-Methyltetrahydrofuran; 40 mg/kg; iv; Male; Harlan Sprague Dawley
Rat [12] = assay: concentration in brain after dosing; conditions: 7 min; dosed: 2-Methyltetrahydrofuran; 40 mg/kg; iv; Male; Harlan Sprague Dawley
Rat [13] = assay: concentration in plasma after dosing; conditions: 1.5 h; dosed: 2-Methyltetrahydrofuran; 40 mg/kg; iv; Male; Harlan Sprague Dawley; remark: listed apart in the source
Rat [14] = assay: concentration in brain after dosing; conditions: 1.5 h; dosed: 2-Methyltetrahydrofuran; 40 mg/kg; iv; Male; Harlan Sprague Dawley
Rat [15] = assay: concentration in kidney after dosing; conditions: 3360 h; dosed: Perfluorooctane Sulfonate; 20 mg/kg; oral; Male; Harlan Sprague Dawley
Rat [16] = assay: concentration in plasma after dosing; conditions: 3360 h; dosed: Perfluorooctane Sulfonate; 2 mg/kg; oral; Female; Harlan Sprague Dawley
Rat [17] = assay: concentration in plasma after dosing; conditions: dosed: Perfluorooctane Sulfonate, 2 mg/kg, iv, Male, F344
Rat [18] = assay: concentration in liver after dosing; conditions: 3360 h; dosed: Perfluorooctane Sulfonate; 2 mg/kg; oral; Female; Harlan Sprague Dawley
Rat [19] = assay: concentration in kidney after dosing; conditions: 1848 h; dosed: Perfluorooctane Sulfonate; 2 mg/kg; oral; Female; Harlan Sprague Dawley
Rat [20] = assay: concentration in liver after dosing; conditions: 864 h; dosed: Perfluorooctane Sulfonate; 2 mg/kg; oral; Female; Harlan Sprague Dawley
Rat [21] = assay: concentration in kidney after dosing; conditions: 24 h; dosed: Perfluorooctane Sulfonate; 2 mg/kg; oral; Female; Harlan Sprague Dawley
Rat [22] = assay: concentration in kidney after dosing; conditions: 6 h; dosed: Perfluorooctane Sulfonate; 20 mg/kg; oral; Male; Harlan Sprague Dawley
Rat [23] = assay: concentration in plasma after dosing; conditions: dosed: Perfluorooctane Sulfonate, 2 mg/kg, iv, Female, F344
Rat [24] = assay: concentration in liver after dosing; conditions: 6 h; dosed: Perfluorooctane Sulfonate; 20 mg/kg; oral; Female; F344
Rat [25] = assay: concentration in liver after dosing; conditions: 3360 h; dosed: Perfluorooctane Sulfonate; 2 mg/kg; oral; Female; Harlan Sprague Dawley; remark: listed apart in the source
Rat [26] = assay: concentration in plasma after dosing; conditions: dosed: Perfluorooctane Sulfonate, 2 mg/kg, oral, Female, Harlan Sprague Dawley
Rat [27] = assay: concentration in liver after dosing; conditions: 1848 h; dosed: Perfluorooctane Sulfonate; 2 mg/kg; oral; Female; Harlan Sprague Dawley
Rat [28] = assay: concentration in brain after dosing; conditions: 1 h; dosed: Perfluorohexanoic Acid; 80 mg/kg; oral; Female; Harlan Sprague Dawley
Rat [29] = assay: concentration in plasma after dosing; conditions: 0.75 h; dosed: Perfluorohexanoic Acid; 40 mg/kg; iv; Female; Harlan Sprague-Dawley
Rat [30] = assay: concentration in liver after dosing; conditions: 12 h; dosed: Perfluorohexanoic Acid; 80 mg/kg; oral; Male; Harlan Sprague Dawley
Rat [31] = assay: concentration in brain after dosing; conditions: 3 h; dosed: Perfluorohexanoic Acid; 80 mg/kg; oral; Male; Harlan Sprague Dawley
Rat [32] = assay: concentration in plasma after dosing; conditions: dosed: Perfluorohexanoic Acid, 40 mg/kg, oral, Male, Harlan Sprague Dawley
Rat [33] = assay: concentration in plasma after dosing; conditions: 1.5 h; dosed: Perfluorohexanoic Acid; 40 mg/kg; iv; Male; F344
Rat [34] = assay: concentration in plasma after dosing; conditions: dosed: Fluorotelomer alcohol 8+2, 12 mg/kg, oral, Male, Harlan Sprague Dawley
Rat [35] = assay: concentration in liver after dosing; conditions: 3 h; dosed: Fluorotelomer alcohol 8+2; 80 mg/kg; oral; Female; Harlan Sprague Dawley
Rat [36] = assay: concentration in plasma after dosing; conditions: dosed: Fluorotelomer alcohol 8+2, 12 mg/kg, oral, Male, Harlan Sprague Dawley; remark: listed apart in the source
Rat [37] = assay: concentration in brain after dosing; conditions: 0.5 h; dosed: Fluorotelomer alcohol 8+2; 80 mg/kg; oral; Female; Harlan Sprague Dawley
Rat [38] = assay: concentration in liver after dosing; conditions: 3 h; dosed: Fluorotelomer alcohol 8+2; 24 mg/kg; oral; Male; Harlan Sprague Dawley
Rat [39] = assay: concentration in kidney after dosing; conditions: 1 h; dosed: Fluorotelomer alcohol 8+2; 24 mg/kg; oral; Male; Harlan Sprague Dawley
Rat [40] = assay: concentration in kidney after dosing; conditions: 3 h; dosed: Fluorotelomer alcohol 8+2; 80 mg/kg; oral; Female; Harlan Sprague Dawley

Cc1ccc(C)c(OCCCC(C)(C)C(=O)O)c1 [Gemfibrozil]
Conditions	concentration in plasma [µg/mL]
Rat [1]	7.68
Rat [2]	2.93
Rat [3]	13.8
Rat [4]	0.287
Rat [5]	57.5
Rat [6]	0.509

CC1CCCO1 (stereo not drawn) [2-Methyltetrahydrofuran]
Conditions	concentration in brain [µg/mL]	concentration in plasma [µg/mL]
Rat [7]	15.2	–
Rat [8]	–	19.3
Rat [9]	–	37.6
Rat [10]	–	48.1
Rat [11]	15.4	–
Rat [12]	31	–
Rat [13]	–	11.4
Rat [14]	8.33	–

O=S(=O)([O-])C(F)(F)C(F)(F)C(F)(F)C(F)(F)C(F)(F)C(F)(F)C(F)(F)C(F)(F)F [Perfluorooctane Sulfonate]
Conditions	concentration in kidney [ng/g]	concentration in liver [ng/g]	concentration in plasma [ng/mL]
Rat [15]	1110	–	–
Rat [16]	–	–	428
Rat [18]	–	2150	–
Rat [19]	2750	–	–
Rat [20]	–	17500	–
Rat [21]	8400	–	–
Rat [22]	63800	–	–
Rat [24]	–	139000	–
Rat [25]	–	4340	–
Rat [27]	–	5680	–

Conditions	concentration in plasma [ng/mL]
Rat [17], 12 h	5170
Rat [17], 1200 h	1700
Rat [23], 1 h	4240
Rat [23], 192 h	4100
Rat [23], 2376 h	105
Rat [26], 5 min	27.5
Rat [26], 192 h	3830
Rat [26], 1200 h	1210

O=C(O)C(F)(F)C(F)(F)C(F)(F)C(F)(F)C(F)(F)F [Perfluorohexanoic Acid]
Conditions	concentration in brain [ng/g]	concentration in liver [ng/g]	concentration in plasma [ng/mL]
Rat [28]	1340	–	–
Rat [29]	–	–	1570
Rat [30]	–	1910	–
Rat [31]	1460	–	–
Rat [33]	–	–	336

Rat [32]
Conditions	concentration in plasma [ng/mL]
0.75 h	46400
12 h	6500

O=C(O)CCC(F)(F)C(F)(F)C(F)(F)C(F)(F)C(F)(F)C(F)(F)C(F)(F)F [Fluorotelomer acid 7+3]
concentration in plasma [ng/mL]
Conditions	1 h	24 h	48 h	192 h
Rat [34]	–	–	245	25.5
Rat [36]	334	377	–	–

Conditions	concentration in brain [ng/g]	concentration in kidney [ng/g]	concentration in liver [ng/g]
Rat [35]	–	–	11400
Rat [37]	114	–	–
Rat [38]	–	–	2680
Rat [39]	–	310	–
Rat [40]	–	5820	–

— EPA's CvTdb concentration-time database
